Among the data in US10533010B2, “Substituted indole Mcl-1 inhibitors” (Vanderbilt University, priority 2014, dated 2020) are IC50, Ki and EC50 values, retold here.

SMILES strings stand for the structures. Where two headings read alike, the source gives them in different places.

Experiment [1] relates to H929. Briefly: Cellular viability (Cell TiterGlo) H929. Format: cell-based. Particulars: Homo sapiens, NCI-H929; H929 cells, 72 hours, 10% FBS; read-out: IC50 on cellular proliferation, H929. As to the method: (§1) Human cancer cell lines ALMC-1, ALMC-2, K562, H929, and OPM-2 were cultured in media supplemented with 10% fetal bovine serum (FBS). To evaluate compound effect on cellular proliferation, cells were plated at 1,000 cells/well in 96-well tissue culture plates in a total volume of 90 μL medium supplemented with 10% FBS (Sigma, Saint Louis, Mo.). 24 hours later, 10 μL of compound (in a 2-fold serial dilution) is added to the cells for a top concentration of 50 μM and a final DMSO concentration <1%. After 72 hours, 50 μL of Cell TiterGlo (Promega, Madison, Wis., USA) reagent is added to each well and plates are incubated at room temperature, in the dark, for 30 minutes. Luminescence is measured on a BioTek Cytation 3. Luminescence values are imported into a template in XLFit (Guildford, Surrey, UK) that uses a four-parameter fit to generate an IC50 value for each compound dilution series on the plate.
For orientation: In ATP-based viability assays light output follows the ATP content of the culture.

Experiment [2] addresses Bcl-2 (residues 1-207 A96T,G110R, Δ35-91, replaced with Bcl-xL35-50) (Homo sapiens, UniProt P10415, A37E/DEL42-87/G36T/INS34DVEEN/P40E/P88T/P90S/P91E/V35R/V89E). Put plainly: Fluorescence polarization anisotropy competition selectivity assay (FITC-Bak peptide) with Bcl-2. The format is binding. The conditions noted are these: Table 3; 40 nM Bcl-2, 10 nM FITC-Bak. As to the method:
(§2) Compound affinity was measured using a fluorescence polarization anisotropy competition assay. Anisotropy measurements were carried out in 384-well, black, flat-bottom plates (Greiner Bio-one, Monroe, N.C., USA). The assay was run using either a fluorescein isothiocyanate-labeled BH3 peptide derived from Bak (FITC-AHx-[…]-NH2) or a fluorescein isothiocyanate-labeled BH3 peptide derived from Bim (FITC-AHx-[…]-NH2) that were purchased from GenScript (Piscataway, N.J.) at >95% purity and used without further purification. 10 nM FITC-Bak peptide and 15 nM recombinant Mcl-1 (residues 172-327) were added to assay buffer (3 mM dithiothreitol, 50 mM NaCl, 20 mM Tris, pH 7.5). The Bim based assay was run with 1 nM FITC-Bim peptide and 1.5 nM recombinant Mcl-1 (residues 172-327) added to assay buffer (20 mM TRIS pH 7.5, 50 mM NaCl, 3 mM DTT, 0.01% CHAPS). For selectivity assays, 40 nM Bcl-2 (residues 1-207^A96T,G110R, Δ35-91, replaced with Bcl-xL35-50) or 4 nM Bcl-xL (residues 1-209, loop 45-86 deleted) were incubated with 10 nM FITC-Bak in assay buffer.
(§3) Compounds are diluted in DMSO in a 10-point, 3-fold serial dilution scheme. For the FITC-BAK assay 2.5 uL compound is added to 47.5 μL of assay buffer containing FITC-Bak and protein, for a final DMSO concentration of 5% and a top concentration of 20 μM. […] […]. The plate was mixed and incubated for 90 minutes at room temperature. Anisotropy is measured at excitation wavelength 480 nm and emission wavelength 535 nm using an EnVision Multi-label plate reader (PerkinElmer, Wellesley, Mass., USA) or a BioTek Cytation 3 (BioTek, Winooski, Vt., USA). […] IC50 is converted to a binding dissociation constant (Ki value) according to the formula of Wang Z. FEBS Lett (1996) 3, 245.

The subject of the next experiment is OPM-2. Put plainly: Cellular viability (Cell TiterGlo) OPM-2. Format: cell-based. Particulars: Homo sapiens; OPM-2 cells, 72 hours, 10% FBS; read-out: IC50 on cellular proliferation, OPM-2. The protocol:
as §1

The target in experiment [3] is Bcl-xL (residues 1-209, loop 45-86 deleted) (Homo sapiens (Human), UniProt Q07817, DEL45-86). Put plainly: Fluorescence polarization anisotropy competition selectivity assay (FITC-Bak peptide) with Bcl-xL. Format: binding. The conditions noted are these: Table 3; 4 nM Bcl-xL, 10 nM FITC-Bak. As to the method:
as §2, §3
(In fluorescence polarisation assays a small probe gives low polarisation when free and higher when bound to something large.)

The subject of a further experiment is K562. Put plainly: Cellular viability (Cell TiterGlo) K562. Format: cell-based. The conditions noted are these: Homo sapiens; K562 cells, 72 hours, 10% FBS; read-out: IC50 on cellular proliferation, K562. As to the method:
as §1

A further experiment relates to ALMC-1. Briefly: Cellular viability (Cell TiterGlo) ALMC-1. The conditions noted are these: Homo sapiens, ALMC1; ALMC-1 cells, 72 hours, 10% FBS; read-out: IC50 on cellular proliferation, ALMC-1. The format is cell-based. The protocol:
as §1

In experiment [4] the target is recombinant Mcl-1 (residues 172-327) (Homo sapiens (Human), UniProt Q07820). Briefly: Fluorescence polarization anisotropy competition assay (FITC-Bak or FITC-Bim BH3 peptide) with Mcl-1. The format is binding.
For the next experiment, the system named is ALMC-2. Briefly: Cellular viability (Cell TiterGlo) ALMC-2. Format: cell-based. The conditions noted are these: Homo sapiens, ALMC2; ALMC-2 cells, 72 hours, 10% FBS; read-out: IC50 on cellular proliferation, ALMC-2. The protocol:
as §1

Experiment [5] concerns H929. Briefly: Apoptosis assay (Caspase 3/7 Glo) H929. Format: cell-based. Particulars: Homo sapiens, NCI-H929; H929 cells, 3 hours, 5% FBS; read-out: EC50 on cellular caspase 3/7 activation, H929. As to the method:
Induction of apoptosis was measured by quantifying caspase 3/7 activity using the commercially available Caspase-Glo reagent (Promega, Madison, Wis., USA). This assay relies on the cleavage of a proluminescent substrate by activated caspases, which is then detected on the BioTek Cytation 3. 5000 cells in 90 μL of media (+5% FBS) are plated in each well of a white 96-well plate and incubated overnight at 37° C. in a tissue culture incubator. The following day, compound is diluted in a 10-pt, 2-fold serial dilution scheme for a final top concentration of 50 μM. 10 μL of compound is added directly to the cell assay plate for a final volume of 100 μL. Columns 11 and 12 are reserved for treatment with DMSO to serve as control wells. Plates are incubated for 3 hours. 100 μL of Caspase-Glo reagent is added to each well and plates are incubated at room temperature, in the dark, for 30 minutes. Luminescence is measured on the Cytation 3. Luminescence values are imported into a template in XLFit (Guildford, Surrey, UK) that uses a four-parameter fit to generate an IC50 value for each compound dilution series on the plate.

Where [6] appears, read: Table 2, Ki bins given in nM, FITC-Bak or FITC-Bim peptide competition, Ki converted from IC50, read-out: Ki for Inhibition of Mcl-1.
Where [7] appears, read: Table 3, selectivity panel, read-out: Mcl-1 Ki.

Chain of Bcl-xL (residues 1-209, loop 45-86 deleted) (Q07817 other isoform, or with tags, fused parts or gaps del 45-86): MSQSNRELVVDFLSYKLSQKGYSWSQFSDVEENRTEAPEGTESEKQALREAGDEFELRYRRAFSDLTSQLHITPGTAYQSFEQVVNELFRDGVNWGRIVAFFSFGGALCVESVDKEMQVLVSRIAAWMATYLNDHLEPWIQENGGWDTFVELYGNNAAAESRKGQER
Chain of recombinant Mcl-1 (residues 172-327) (Q07820 172-327): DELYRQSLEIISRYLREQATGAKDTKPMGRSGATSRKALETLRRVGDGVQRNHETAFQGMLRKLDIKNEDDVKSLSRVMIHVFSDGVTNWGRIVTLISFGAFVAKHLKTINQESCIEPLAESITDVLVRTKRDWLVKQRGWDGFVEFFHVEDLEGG

The Ki is a dissociation constant, usually derived from enzyme kinetics or from competition with a known ligand. As to `Cc1cc(OCCCc2c3n(c4c(-c5c(C)nn(C)c5C)cccc24)CCN(Cc2cccc(C(=O)O)c2)C3=O)cc(C)c1Cl` [I-31, 3-((10-(3-(4-chloro-3,5-dimethylphenoxy)propyl)-1-oxo-6-(1,3,5-trimethyl-1H-pyrazol-4-yl)-3,4-dihydropyrazino[1,2-a]indol-2(1H)-yl)methyl)benzoic acid], the IC50 with H929 [1] turned out to be 15 µM; in the experiment on OPM-2 it was 16.3 µM; with K562, 40 µM; in the experiment on ALMC-1, 13.1 µM; in the experiment with ALMC-2, 33.9 µM. Besides, the Ki in [2] was 2.2 µM; in [3], 6.44 µM; in experiment [4] (setting [6]) it was […]; in experiment [4] (setting [7]) it was […].

Regarding `Cc1cc(OCCCc2c(C(=O)NCc3cc(C(=O)O)n(C)c3)[nH]c3c(-c4c(C)nn(C)c4C)cccc23)cc(C)c1Cl` [I-74, 4-((3-(3-(4-chloro-3,5-dimethylphenoxy)propyl)-7-(1,3,5-trimethyl-1H-pyrazol-4-yl)-1H-indole-2-carboxamido)methyl)-1-methyl-1H-pyrrole-2-carboxylic acid], the Ki was 3.54 µM in [2], greater than 100 µM in experiment [3], […] in [4] (setting [6]) and […] in experiment [4] (setting [7]).

Turning to `Cc1cc(OCCCc2c(C(=O)Nc3cncc(C(=O)O)c3)[nH]c3c(-c4c(C)nn(C)c4C)c(Cl)ccc23)cc(C)c1Cl` [I-181, 5-(6-chloro-3-(3-(4-chloro-3,5-dimethylphenoxy)propyl)-7-(1,3,5-trimethyl-1H-pyrazol-4-yl)-1H-indole-2-carboxamido)nicotinic acid], the Ki in experiment [2] turned out to be 3.2 µM; in [3] it was 61.5 µM.

Consider `Cc1cc(OCCCc2c(C(=O)Nc3cc(C(=O)O)ccn3)[nH]c3c(-c4c(C)nn(C)c4C)c(Cl)ccc23)cc(C)c1Cl` [I-183, 2-(6-chloro-3-(3-(4-chloro-3,5-dimethylphenoxy)propyl)-7-(1,3,5-trimethyl-1H-pyrazol-4-yl)-1H-indole-2-carboxamido)isonicotinic acid], for which the inhibition constant Ki in experiment [2] worked out at 2.9 µM; in [3], 14.4 µM.

In the case of `Cc1cc(OCCCc2c(C(=O)Nc3cccc(C(=O)O)c3)n(C)c3c(-c4c(C)nn(C)c4C)c(Cl)ccc23)cc(C)c1Cl` [I-188, 3-(6-chloro-3-(3-(4-chloro-3,5-dimethylphenoxy)propyl)-1-methyl-7-(1,3,5-trimethyl-1H-pyrazol-4-yl)-1H-indole-2-carboxamido)benzoic acid], the Ki came to 5.3 µM in [2] and 15.6 µM in experiment [3].

Take `Cc1cc(OCCCc2c(C(=O)N(C)c3cccc(C(=O)O)c3)n(C)c3c(-c4c(C)nn(C)c4C)c(Cl)ccc23)cc(C)c1Cl` [I-189, 3-(6-chloro-3-(3-(4-chloro-3,5-dimethylphenoxy)propyl)-N,1-dimethyl-7-(1,3,5-trimethyl-1H-pyrazol-4-yl)-1H-indole-2-carboxamido)benzoic acid]: the Ki in [2] is 1.37 µM; in experiment [3], 4.63 µM; in [4] (setting [6]) it was less than 50 nM; in [4] (setting [7]), less than 7 nM.

For `Cc1cc(OCCCc2c(C(=O)Nc3ccc(C(=O)O)cc3)[nH]c3c(-c4c(C)nn(CCN5CCOCC5)c4C)c(Cl)ccc23)cc(C)c1Cl` [I-190, 4-(6-chloro-3-(3-(4-chloro-3,5-dimethylphenoxy)propyl)-7-(3,5-dimethyl-1-(2-morpholinoethyl)-1H-pyrazol-4-yl)-1H-indole-2-carboxamido)benzoic acid], the inhibitory constant (Ki) is 1.64 µM in experiment [2], 45.6 µM in experiment [3], […] in [4] (setting [6]) and […] in [4] (setting [7]).

In the case of `Cc1cc(C(=O)O)cc(N2CCCn3c(c(CCCOc4cc(C)c(Cl)c(C)c4)c4ccc(Cl)c(-c5c(C)nn(C)c5C)c43)C2=O)c1` [I-220, 3-(8-chloro-11-(3-(4-chloro-3,5-dimethylphenoxy)propyl)-1-oxo-7-(1,3,5-trimethyl-1H-pyrazol-4-yl)-4,5-dihydro-1H-[1,4]diazepino[1,2-a]indol-2(3H)-yl)-5-methylbenzoic acid], the IC50 in the experiment with H929 [1] worked out at 4.9 µM; with K562, 14.8 µM. For the same compound, the inhibitory constant (Ki) in [4] (setting [6]) is less than 50 nM.

With `Cc1cc(OCCCc2c3n(c4c(-c5c(C)nn(C)c5C)c(Cl)ccc24)CCCN(c2cccc(CC(=O)O)c2)C3=O)cc(C)c1Cl` [I-236, 2-(3-(8-chloro-11-(3-(4-chloro-3,5-dimethylphenoxy)propyl)-1-oxo-7-(1,3,5-trimethyl-1H-pyrazol-4-yl)-4,5-dihydro-H-[1,4]diazepino[1,2-a]indol-2(3H)-yl)phenyl)acetic acid], the IC50 turned out to be 7.3 µM with H929 [1]; 7.2 µM with OPM-2; 25 µM with K562; 6.9 µM with ALMC-1; 12.2 µM with ALMC-2. The inhibitory constant (Ki) in experiment [4] (setting [6]) was less than 50 nM.

Regarding `Cc1cc(OCCCc2c(C(=O)NCc3cc(C(=O)O)ccn3)[nH]c3c(-c4c(C)nn(C)c4C)cccc23)cc(C)c1Cl` [I-280, 2-((3-(3-(4-chloro-3,5-dimethylphenoxy)propyl)-7-(1,3,5-trimethyl-1H-pyrazol-4-yl)-1H-indole-2-carboxamido)methyl)isonicotinic acid], the results for the Ki in [2] and in experiment [3] were 7.9 µM and 27 µM, respectively.

As for `Cc1cc(OCCCc2c(C(=O)NC[C@H]3CC[C@H](C(=O)O)CC3)[nH]c3c(-c4c(C)nn(C)c4C)cccc23)cc(C)c1Cl` [I-320, (1R,4R)-4-((3-(3-(4-chloro-3,5-dimethylphenoxy)propyl)-7-(1,3,5-trimethyl-1H-pyrazol-4-yl)-1H-indole-2-carboxamido)methyl)cyclohexane-1-carboxylic acid], the EC50 in the experiment on H929 [5] worked out at 2.3 µM. Also, in experiment [4] (setting [6]), the Ki was less than 50 nM.
